Results taken from ChEMBL document CHEMBL1201862, “PubChem BioAssay data set” (2004).
Calls of active or inactive are those of the source.

Key:
[1] = molecular target: T1, Mannose-6-phosphate isomerase (Homo sapiens, UniProt P34949); experiment: human PMI inhibitors, high substrate, primary screen, biochemical, fluorescence intensity, high mannose 6-phosphate (AID 1220)
T1 sequence (P34949 whole entry): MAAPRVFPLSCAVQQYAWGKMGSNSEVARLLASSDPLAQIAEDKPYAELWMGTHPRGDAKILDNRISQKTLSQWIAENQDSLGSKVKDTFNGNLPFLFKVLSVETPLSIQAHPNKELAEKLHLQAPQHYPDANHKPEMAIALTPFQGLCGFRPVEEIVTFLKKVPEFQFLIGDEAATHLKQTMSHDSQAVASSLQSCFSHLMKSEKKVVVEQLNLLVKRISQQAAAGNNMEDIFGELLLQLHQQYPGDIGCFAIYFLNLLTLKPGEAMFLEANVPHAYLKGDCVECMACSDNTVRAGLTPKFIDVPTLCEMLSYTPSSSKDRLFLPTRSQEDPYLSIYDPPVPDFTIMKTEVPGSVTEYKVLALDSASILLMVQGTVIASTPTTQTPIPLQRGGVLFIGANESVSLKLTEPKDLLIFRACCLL

[2] = molecular target: T2, Long-chain-fatty-acid--AMP ligase FadD28 (Mycobacterium tuberculosis, UniProt P9WQ59); experiment: Fluorescence polarization aasay to screen for inhibitors that compete for the binding of FadD28 to a bisubstrate Measured in Biochemical System Using Plate Reader - 2147-01_Inhibitor_Dose_CherryPick_Activity.; format: functional, Mycobacterium tuberculosis H37Rv
T2 sequence (P9WQ59 whole entry): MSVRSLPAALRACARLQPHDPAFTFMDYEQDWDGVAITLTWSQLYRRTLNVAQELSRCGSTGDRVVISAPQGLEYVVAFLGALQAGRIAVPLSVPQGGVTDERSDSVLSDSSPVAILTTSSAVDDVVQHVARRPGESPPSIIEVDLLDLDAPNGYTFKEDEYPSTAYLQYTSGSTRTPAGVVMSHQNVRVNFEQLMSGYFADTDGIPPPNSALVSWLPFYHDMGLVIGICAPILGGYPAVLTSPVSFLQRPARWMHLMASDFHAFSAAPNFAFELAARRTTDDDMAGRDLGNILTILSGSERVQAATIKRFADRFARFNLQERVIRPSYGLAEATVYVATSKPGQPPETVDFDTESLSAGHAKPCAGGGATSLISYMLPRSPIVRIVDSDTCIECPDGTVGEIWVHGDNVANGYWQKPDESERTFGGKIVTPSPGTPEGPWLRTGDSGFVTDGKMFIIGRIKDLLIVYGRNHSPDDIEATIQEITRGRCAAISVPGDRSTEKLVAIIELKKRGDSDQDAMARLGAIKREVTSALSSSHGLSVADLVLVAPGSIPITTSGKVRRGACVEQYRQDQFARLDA

[3] = molecular target: T3, Sentrin-specific protease 1 (Homo sapiens, UniProt Q9P0U3); experiment: potency of human SENP1 inhibitors, dose response, biochemical, kinetic FRET (AID 651697); format: functional; conditions: read-out: IC50_Mean
T3 sequence (Q9P0U3 whole entry): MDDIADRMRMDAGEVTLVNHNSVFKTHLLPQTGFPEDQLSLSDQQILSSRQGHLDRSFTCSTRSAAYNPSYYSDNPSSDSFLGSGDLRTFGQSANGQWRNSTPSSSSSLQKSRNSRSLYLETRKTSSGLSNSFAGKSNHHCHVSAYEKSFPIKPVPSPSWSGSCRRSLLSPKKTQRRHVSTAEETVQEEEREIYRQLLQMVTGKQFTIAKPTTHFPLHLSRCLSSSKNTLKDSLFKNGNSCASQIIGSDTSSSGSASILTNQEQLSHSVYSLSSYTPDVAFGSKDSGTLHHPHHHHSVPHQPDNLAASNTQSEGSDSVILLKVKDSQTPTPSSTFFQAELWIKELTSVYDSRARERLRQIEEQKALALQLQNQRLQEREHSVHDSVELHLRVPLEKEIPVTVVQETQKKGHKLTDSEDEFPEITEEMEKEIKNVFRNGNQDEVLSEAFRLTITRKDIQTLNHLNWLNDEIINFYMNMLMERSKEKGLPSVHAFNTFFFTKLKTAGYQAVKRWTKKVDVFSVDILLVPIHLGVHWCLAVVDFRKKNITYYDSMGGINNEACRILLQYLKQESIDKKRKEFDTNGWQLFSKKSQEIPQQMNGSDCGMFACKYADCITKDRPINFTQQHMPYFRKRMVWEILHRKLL

[4] = molecular target: T3, Sentrin-specific protease 1; experiment: Dose response confirmation of small molecule inhibitors of the catalytic domain of the SUMO protease, SENP1 in a FRET assay.; format: functional; conditions: read-out: IC50_Mean
Cryptococcus neoformans = experiment: PubChem AID 686997; format: functional, organism-based; conditions: Cryptococcus neoformans
[5] = molecular target: T4, DNA repair and recombination protein RAD54-like (Homo sapiens, UniProt Q92698); experiment: inhibitors of human RAD54 branch migration, confirmation, biochemical, fluorescence, cherry-picked samples, dose series (AID 651657); format: functional
T4 sequence (Q92698 whole entry): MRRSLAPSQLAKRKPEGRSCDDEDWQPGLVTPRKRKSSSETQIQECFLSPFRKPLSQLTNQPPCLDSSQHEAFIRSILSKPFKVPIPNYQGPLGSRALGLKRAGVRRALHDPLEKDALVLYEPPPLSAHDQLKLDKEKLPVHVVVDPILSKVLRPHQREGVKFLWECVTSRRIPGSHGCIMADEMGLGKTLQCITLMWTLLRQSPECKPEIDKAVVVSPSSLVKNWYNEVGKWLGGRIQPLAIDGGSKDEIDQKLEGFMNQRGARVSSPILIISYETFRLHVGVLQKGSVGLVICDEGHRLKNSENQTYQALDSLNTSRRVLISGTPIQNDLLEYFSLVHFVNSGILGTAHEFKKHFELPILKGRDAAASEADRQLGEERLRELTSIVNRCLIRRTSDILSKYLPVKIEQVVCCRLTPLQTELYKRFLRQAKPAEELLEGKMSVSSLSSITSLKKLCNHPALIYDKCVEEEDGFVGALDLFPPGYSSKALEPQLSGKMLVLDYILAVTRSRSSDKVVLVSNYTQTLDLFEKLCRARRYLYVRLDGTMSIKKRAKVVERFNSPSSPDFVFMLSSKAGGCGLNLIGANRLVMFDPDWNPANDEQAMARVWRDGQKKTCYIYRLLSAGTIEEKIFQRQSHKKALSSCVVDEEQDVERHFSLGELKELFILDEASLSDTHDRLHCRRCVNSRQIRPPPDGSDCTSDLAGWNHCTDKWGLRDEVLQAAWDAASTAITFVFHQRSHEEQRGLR

[6] = molecular target: T5, Fructose-bisphosphate aldolase (Mycobacterium tuberculosis, UniProt P9WQA3); experiment: Fluorescence-based biochemical high throughput dose response assay for inhibitors of the fructose-bisphosphate aldolase (FBA) of M. tuberculosis.; format: functional
T5 sequence (P9WQA3 whole entry): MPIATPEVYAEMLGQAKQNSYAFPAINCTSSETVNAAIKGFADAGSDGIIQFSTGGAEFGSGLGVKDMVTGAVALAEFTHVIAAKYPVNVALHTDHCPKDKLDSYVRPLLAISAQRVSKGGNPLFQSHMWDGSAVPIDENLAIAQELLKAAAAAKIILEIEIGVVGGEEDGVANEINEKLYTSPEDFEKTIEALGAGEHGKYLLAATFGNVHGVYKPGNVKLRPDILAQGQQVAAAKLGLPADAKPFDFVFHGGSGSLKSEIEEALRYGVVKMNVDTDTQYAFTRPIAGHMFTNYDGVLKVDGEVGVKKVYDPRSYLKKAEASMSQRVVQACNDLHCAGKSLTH

Protein skinhead-1 = molecular target: T6, Protein skinhead-1 (Caenorhabditis elegans, UniProt P34707); format: functional
T6 sequence (P34707 whole entry): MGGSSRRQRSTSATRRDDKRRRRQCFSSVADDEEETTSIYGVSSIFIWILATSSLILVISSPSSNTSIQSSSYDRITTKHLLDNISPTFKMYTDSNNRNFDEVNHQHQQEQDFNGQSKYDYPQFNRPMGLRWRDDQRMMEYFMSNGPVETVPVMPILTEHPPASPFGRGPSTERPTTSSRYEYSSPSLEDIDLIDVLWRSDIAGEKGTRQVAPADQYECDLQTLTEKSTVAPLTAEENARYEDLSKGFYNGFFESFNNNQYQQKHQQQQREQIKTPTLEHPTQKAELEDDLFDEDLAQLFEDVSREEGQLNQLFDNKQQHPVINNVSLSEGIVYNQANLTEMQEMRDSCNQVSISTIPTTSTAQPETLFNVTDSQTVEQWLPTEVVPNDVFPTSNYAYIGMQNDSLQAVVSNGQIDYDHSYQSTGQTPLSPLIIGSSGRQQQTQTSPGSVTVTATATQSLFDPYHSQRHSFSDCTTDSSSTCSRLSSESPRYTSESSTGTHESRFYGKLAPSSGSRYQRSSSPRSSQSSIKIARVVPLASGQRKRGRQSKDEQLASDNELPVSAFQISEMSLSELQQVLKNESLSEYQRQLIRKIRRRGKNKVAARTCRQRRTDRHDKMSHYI

[7] = molecular target: T7, Corticotropin-releasing factor receptor 2/Corticotropin-releasing factor-binding protein (Homo sapiens, UniProt P24387+Q13324); experiment: Dose Response confirmation of uHTS hits for small molecule antagonists of the CRF-binding protein and CRF-R2 receptor complex.; format: functional; conditions: read-out: IC50_Mean
T7 sequence (Q13324 whole entry): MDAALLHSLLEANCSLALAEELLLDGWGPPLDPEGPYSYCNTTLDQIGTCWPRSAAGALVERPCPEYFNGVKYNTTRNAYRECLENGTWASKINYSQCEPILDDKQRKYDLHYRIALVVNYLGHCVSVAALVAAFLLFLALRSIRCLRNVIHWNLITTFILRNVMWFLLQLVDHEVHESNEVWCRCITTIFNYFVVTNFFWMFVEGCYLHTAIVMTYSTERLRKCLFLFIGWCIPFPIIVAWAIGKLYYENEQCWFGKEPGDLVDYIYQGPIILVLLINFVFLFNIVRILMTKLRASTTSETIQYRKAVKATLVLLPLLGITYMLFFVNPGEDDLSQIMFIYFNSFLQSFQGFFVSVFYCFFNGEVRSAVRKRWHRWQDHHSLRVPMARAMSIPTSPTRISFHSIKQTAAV
T7 sequence (P24387 whole entry): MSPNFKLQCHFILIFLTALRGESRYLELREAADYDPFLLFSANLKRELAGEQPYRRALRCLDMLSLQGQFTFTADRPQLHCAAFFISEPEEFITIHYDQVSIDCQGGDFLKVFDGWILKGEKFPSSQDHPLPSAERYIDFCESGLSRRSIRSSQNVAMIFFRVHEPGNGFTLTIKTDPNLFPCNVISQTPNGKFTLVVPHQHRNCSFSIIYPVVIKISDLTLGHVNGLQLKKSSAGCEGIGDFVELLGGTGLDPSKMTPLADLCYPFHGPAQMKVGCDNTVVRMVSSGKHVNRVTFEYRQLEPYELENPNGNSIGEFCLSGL

[8] = molecular target: T7, Corticotropin-releasing factor receptor 2/Corticotropin-releasing factor-binding protein; experiment: activators of CRF receptor 2 with binding protein – uHTS hits, confirmation (AID 602473); format: functional; conditions: read-out: EC50_Mean
[9] = CRF-BP/CRF-R2 complex antagonists, dose response, cell-based, uHTS hits, 384-well (AID 651639); format: functional, Homo sapiens; conditions: read-out: IC50_Mean
[10] = molecular target: Heat shock protein HSP 90-alpha (Homo sapiens, UniProt P07900); format: functional, organism-based
[11] = molecular target: T8, Adenosylmethionine-8-amino-7-oxononanoate aminotransferase (Mycobacterium tuberculosis, UniProt P9WQ81); experiment: Mycobacterium tuberculosis BioA enzyme inhibitor Measured in Biochemical System Using Plate Reader - 2163-02_Inhibitor_Dose_CherryPick_Activity.; format: functional, Mycobacterium tuberculosis UT205
T8 sequence (P9WQ81 whole entry): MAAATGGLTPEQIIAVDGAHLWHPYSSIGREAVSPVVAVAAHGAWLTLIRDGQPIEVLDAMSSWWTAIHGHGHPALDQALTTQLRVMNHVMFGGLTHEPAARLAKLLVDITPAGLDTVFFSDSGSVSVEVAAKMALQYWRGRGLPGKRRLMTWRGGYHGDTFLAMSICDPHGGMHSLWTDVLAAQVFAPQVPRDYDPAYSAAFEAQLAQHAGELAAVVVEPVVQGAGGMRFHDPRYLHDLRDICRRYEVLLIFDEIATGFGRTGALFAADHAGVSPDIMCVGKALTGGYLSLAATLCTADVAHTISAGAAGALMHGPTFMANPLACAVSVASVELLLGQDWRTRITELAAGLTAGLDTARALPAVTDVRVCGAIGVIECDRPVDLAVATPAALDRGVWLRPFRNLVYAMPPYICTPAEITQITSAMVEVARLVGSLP

Oc1ccccc1Oc1c(F)c(F)nc(N2CCCC2)c1F
IC50 [1]: > 50 µM (not active) | AC50 [2]: 42.5 µM (active)

Cc1ccc(-c2csc3nc(-c4ccncc4)[nH]c(=O)c23)cc1
IC50 [3]: 69.3 µM (inactive) | IC50 [4]: 62 µM (inactive)

Cc1cc(C)c2nc(N3CCN(C(=O)c4cccs4)CC3)sc2c1
AC50 (Cryptococcus neoformans): > 70 µM (inactive)

CCCN(CCC)C(=O)Cn1c(=O)c2sccc2n2c(=S)sc(-c3ccccc3)c12
IC50 [3]: 73.8 µM (inactive) | IC50 [4]: 12.6 µM (active)

CCOC(=O)c1c(C)n(C)c2ccc(OCC(O)CN3CCN(C)CC3)cc12 (configuration not stated)
AC50 [5]: 38.9 µM (active)

Nc1nnc(/C=C/c2ccccc2Cl)s1
IC50 [6]: 1.59 µM (active)

CC(C)CC(C(=O)Oc1ccc2c3c(c(=O)oc2c1)CCC3)N1C(=O)c2ccccc2C1=O (configuration not stated)
IC50 (Protein skinhead-1): > 100 µM (inactive) | IC50 [6]: 1.27 µM (active)

CSc1nc(SCC(N)=O)c2c3c(sc2n1)CN(C)CC3
AC50 [5]: 17.2 µM (active)

CN(Cc1ccc([N+](=O)[O-])cc1)c1ccccc1
IC50 [7]: 2.92 µM (active) | EC50 [8]: > 53 µM (inactive) | IC50 [9]: 7.06 µM (active) | AC50 [2]: > 100 µM (inactive)

Oc1ccc(C=NN=C2c3ccccc3-c3ccccc32)c(O)c1
AC50 [10]: 12.1 µM (active) | IC50 [3]: 12.5 µM (active) | IC50 [4]: 6.06 µM (active)

Oc1nc(N2CCN(Cc3ccc4c(c3)OCO4)CC2)nc2c1CCCC2
AC50 [11]: 0.921 µM (active)

Cn1nnc2cc(C(=O)Nc3cccnc3)ccc21
AC50 [11]: 4.17 µM (active)

C/C=C/c1ccc2c(c1)O[C@@H](CN(C)C(=O)Nc1ccccc1)[C@H](C)CN([C@H](C)CO)S2(=O)=O
AC50 [11]: 5.6 µM (active)
